The source of these data is patent US6559133B2, “Use of flavone 8-acetic acid in vascular and cardiovascular interventions and acute coronary syndromes” (priority 2000, dated 2003).

A short description of data set [1]: Laboratory tests: aPTT and ear bleeding time. The data set is classed as in vivo, pig. The method, then:
The left femoral vein and artery and the right femoral vein were dissected. A 9 F sheath was placed in the left femoral artery, and 14 gauge angiocaths were inserted in the left and right femoral veins. […] All the lines for blood sampling were continuously flushed with 0.9% saline.
(§1) All blood samples were collected with the 2-syringe technique (0.13 M trisodium citrate as anticoagulant; anticoagulant:blood=1:10). […] Platelet count, hematocrit, aPTT, and fibrinogen were determined using standard laboratory methods (Mayo Clinic, Clinical Laboratories). […] Assays were performed as a single batch. The method of determination of FAA in plasma was that of L. Malspeis (personal communication). Briefly, plasma (0.25-0.50 ml) was diluted to 1 ml with 0.5 ml of 0.5 M sodium acetate (pH 3.0) and normal saline. After addition of diethyl ether (4 ml) tubes were shaken on a mechanical shaker for 15 minutes. Following low speed centrifugation, the ether phase was evaporated to dryness under a stream of nitrogen and the residue dissolved in mobile solvent prior to HPLC analysis. Samples were analyzed by reversed-phase HPLC on an IBM C18 (10 micron) column with a mobile solvent of methanol/water mixture. Detection was by UV absorbance at 254 nm. Standard curves were prepared by adding known amounts of FAA to blood blank plasma and analyzing as described above.

Data set [2] deals with solid tumors in the mouse. Particulars: mice; cited from earlier work.
Data set [3] deals with deeply injured porcine carotid artery. Nature of the data set: Platelet and fibrin(ogen) deposition and mural thrombus after deep arterial injury by balloon angioplasty. The data set is classed as in vivo, pig. The method, then:
(§2) Twenty normal pigs of Babcock 4-way cross stock (a mixture of Landrace, Yorkshire, Hampshire, and Durock breeds) approximately 4 months old with a mean weight of 40±1 kg (approximately 1 m^2 body surface area) (P. L. Altman & D. S. Dittmer, “Metabolism” in Biological Handbooks (Federation of American Societies for Experimental Biology, Bethesda, Md., 1968), pp. 346-348), were obtained from local farmers. […] Loading dose and maintenance infusion were calculated based on preliminary pharmacokinetic experiments in pigs.
The model of deep arterial injury in the porcine carotid artery has been described in detail previously (P. M. Steele et al., “Balloon Angioplasty: Natural History of the Pathophysiologic Response to Injury in a Pig Model,” Cir. Res. 57: 105-112 (1985); M. Heras et al., “Hirudin, Heparin, and Placebo During Deep Arterial Injury in the Pig. The in Vivo Role of Thrombin in Platelet-Mediated Thrombosis,” Circulation 82: 1476-1484 (1990); J. Y. T. Lam et al., “Is Vasospasm Related to Platelet Deposition? Relationship in a Porcine Preparation of Arterial Injury in Vivo,” Circulation 75: 243-248 (1987)). Autologous platelets were labeled with […] of ^111Indium-tropolone and reinjected together with […] of ^125Iodine-labeled porcine fibrinogen on the day prior to the procedure M. Heras et al., “Hirudin, Heparin, and Placebo During Deep Arterial Injury in the Pig. The in Vivo Role of Thrombin in Platelet-Mediated Thrombosis,” Circulation 82: 1476-1484 (1990); J. Y. T. Lam et al., “Is Vasospasm Related to Platelet Deposition? Relationship in a Porcine Preparation of Arterial Injury in Vivo,” Circulation 75: 243-248 (1987); J. Mruk et al., “Does Anti-Thrombotic Therapy Influence Residual Thrombus After Thrombolysis of Platelet-Rich Thrombus?,” Circulation 93: 792-799 (1996)). On the day of surgery, the pigs were sedated with 1 g intramuscular ketamine (Ketaset, Bristol Laboratories, Syracuse, N.Y.), intubated and mechanically ventilated with room air (Harvard respirator, Harvard Apparatus, South Natick, Mass.). Anesthesia was maintained with a continuous infusion of etomidate (Abbott Laboratories, North Chicago, Ill.) 40 mg/l, fentanyl (Elkins-Sinn, Inc., Cherry Hill, N.J.) 10 mg/l, and ketamine 1,000 mg/l, at about 5 ml/minute. The ECG and intra-arterial pressure were continuously monitored throughout the procedure.
The left femoral vein and artery and the right femoral vein were dissected. A 9 F sheath was placed in the left femoral artery, and 14 gauge angiocaths were inserted in the left and right femoral veins. […] All the lines for blood sampling were continuously flushed with 0.9% saline. […]

Data set [4] has as its system human platelet-rich plasma. Particulars: cited from earlier work.
Data set [5] in a line: FAA pharmacokinetics and plasma levels in pigs (HPLC). It counts as in vivo, pig. The method, then: as §2, §1
The intravenous bolus and continuous infusion doses to maintain a plasma concentration of 500 μg/ml calculated from these values, were 5.5 gm/m^2 and 140 mg/min/m^2, respectively.

Data set [6] has as its system porcine common carotid arteries. Nature of the data set: Vasoconstriction immediately distal to the dilatation site, from carotid angiograms. It counts as in vivo, pig. Particulars: mean±SEM; p<0.001 vs placebo. As to the method: An 8 mm×3 cm polyethylene angioplasty catheter (Blue Max, Medi-tech, Watertown, Mass.) was advanced under fluoroscopic guidance to the left and then to the right common carotid arteries for arterial dilatation. Angioplasty was performed 30 minutes after starting treatment, between the first and third cervical vertebrae, using a standardized procedure (5 inflations of 30 seconds duration at 7 atmospheres, with 60 seconds between inflations). Carotid angiography was performed by injecting 6 ml of ionic contrast material (Renografin 76, Squibb, Princeton, N.J.) just prior to carotid dilatation, using a catheter (8 F) with a metal ring of known dimension (Cordis Corporation, Miami, Fla.). Spot films were also taken during balloon dilatation. […]
The severity of localized vasoconstriction was determined immediately distal to the dilatation site from angiograms of the common carotid arteries obtained before and after the dilatation procedure. Computer-assisted planimetry was used to measure the mean maximal narrowing in lumen diameter before and after the procedure, expressed as a percentage of the respective arterial dimension before dilatation (J. Y. T. Lam et al., “Is Vasospasm Related to Platelet Deposition? Relationship in a Porcine Preparation of Arterial Injury in Vivo,” Circulation 75: 243-248 (1987)).

Turning to `O=C(O)Cc1cccc2c(=O)cc(-c3ccccc3)oc12` [FAA, flavone-8-acetic acid], the “Bleeding time after FAA in 4 of the animals” value in data set [1] (4 of 5 animals, 210 seconds = 2 standard deviations above the mean laboratory value) is listed as “more than 210 seconds”. The “Bleeding time after FAA” value in data set [1] (5 animals, 30 minutes after starting infusion, before FAA 157±29 seconds) worked out at 522 ± 123 s. Also, the “Implantation of solid tumors” value in data set [2] is recorded as “inhibits implantation of solid tumors in mice”. In addition, in data set [3] (deeply injured segments, mean±SEM, p=0.08 vs placebo), the “Fibrin(ogen) deposition” value is reported as 40±8 ×10^12 molecules/cm^2. Further, the “Incidence of very small mural thrombi, treated pigs” value in data set [3] (per animal, p=0.005, large thrombi in all placebo pigs) is 40%. Also, the “Incidence of very small thrombi, deeply injured segments” value in data set [3] (per deeply injured segment, placebo 85% large thrombi) was found to be 30%. Also, in data set [3] (pigs, FAA bolus 5.5 g/m^2 then infusion 0.14 g/m^2/minute, mean±SEM, p=0.001 vs placebo), the “Platelet deposition in deeply injured segments” value is recorded as 13±3 ×10^6/cm^2. Also, the “Ristocetin-induced platelet aggregation (vWF-GP Ibα-dependent)” value in data set [4] (FAA administered to patients with cancer) was “inhibited”. The “Aggregation induced by ADP, collagen, arachidonic acid and adrenalin” value in data set [4] (ex vivo and in vitro, human platelet-rich plasma) is “not inhibited”. The “Plasma ristocetin cofactor activity” value in data set [4] (human) is on record as “unchanged”. In data set [5] (Babcock 4-way cross (Landrace, Yorkshire, Hampshire, Durock), pig, plasma, intravenous, 30 minutes after starting bolus 5.5 g/m^2 plus infusion 0.14 g/m^2/minute), the concentration at 30 min is 515 ± 23 µg/mL. Besides, the “Plasma level of FAA at the end of the procedure” value in data set [5] (bolus 5.5 g/m^2 plus infusion 0.14 g/m^2/minute) was determined as 575 ± 36 µg/mL. In addition, the half-life (in general, the time needed for the level to fall by half in the phase considered) in data set [5] (pig, plasma, two animals, intravenous bolus 1 gm/m^2, one compartment open model) turned out to be 27.9 min. In data set [5] (two animals, intravenous bolus 1 gm/m^2, one compartment open model), this compound displayed a Plasma clearance of 279 ml/min/m^2. In addition, the “Vasoconstriction immediately distal to the area of dilatation” value in data set [6] stood at 15±3%.
